Results taken from patent US20010007017A1, “PEPTIDES WHICH REACT WITH ANTIBODY RE[…] […] FOR HIV DISEASE PROGRESSION” (priority 1996, published 2001).

How the values were obtained:
viral infection = details: cited from earlier work
[1] = tested on: NTM.V Ab in sera of HIV-positive and healthy individuals; test: ELISA IgG reactivity toward NTM peptide, non-heat-inactivated versus heat-inactivated sera; assay type: binding, human; details: compared with the same heat-inactivated sera
Experimental: The antibody binding of individual patient sera (measured by ELISA assay for heat-inactivated sera dilution 1:100) was presented by single point.
(a) Healthy individuals, and (b) HIV-positive patients.
Reactivity of sera collected from the healthy HIV-negative as well as HIV-positive individuals was examined after heat-inactivation at 40° C. and 56° C. The heat treatment of sera was performed in duration of 10, 20 and 30 minutes. Based on the obtained results (FIG. 14), it can be concluded that release of the NTM.V Ab from immune complexes is temperature and time dependent. In these experiments IgG reactivity toward two forms of the NTM peptide were monitored, i.e. uncoupled and BSA-coupled forms. The reactivity patterns of both NTM forms were similar.

[2] = tested on: natural anti-VIP antibodies in sera of HIV-negative asthma patients; details: sera of HIV-negative asthma patients with high titres of natural anti-VIP antibodies; cited from earlier work

Sequence	blocking of viral infection (viral infection; in vivo as printed)	effect on lymphocyte function (viral infection; in vivo)	reactivity with non-heat-inactivated sera [1]	main end-point titre for hyperimmune sera [2]	reactivity of sera with the peptide [2]
VVVRSLTFKTNKKT	effectively blocks viral infection	without impairing lymphocyte function	–	–	–
RSANFTDNAKTIIVQLNESVEIN [NTM, HIV-1 gp120-derived natural peptide]	–	–	very low reactivity	1/10000	strong reactivity
